# Measurements from patent publication US9546156B2, “N-bicyclic aryl,N'-pyrazolyl urea, thiourea, guanidine cyanoguanidine compounds as TrkA kinase inhibitors” (Array BioPharma Inc., priority 2012, dated 2017).
# Assays:
# Test in all cases: Off-target kinase profiling (KinaseProfiler)
# Type in all cases: biochemical
# Conditions in all cases: 10 μM, ATP near Km
# EphA4 = target: T1, EphA4 (Homo sapiens, UniProt P54764)
# T1 construct: purchased Millipore, Inc. (KinaseProfiler service)
# Procedure: (§1) A representative compound (Example 16) of the invention was tested for off-target kinase activity at a concentration of 10 μM by Millipore, Inc. in their KinaseProfiler™ service against all the kinases available in their full kinase panel. The compound was run in duplicate at a concentration of ATP near the Km for each individual kinase according to Millipore's specifications. The results are shown in Table B. Data are reported as percent of control (POC) and are the average of the two replicates.
# Flt3 = target: T2, Flt3 (Homo sapiens, UniProt P36888)
# T2 construct: purchased Millipore, Inc. (KinaseProfiler service)
# Procedure: as §1
# CLK3 = target: T3, CLK3 (Homo sapiens, UniProt P49761)
# T3 construct: purchased Millipore, Inc. (KinaseProfiler service)
# Procedure: as §1
# EphA2 = target: T4, EphA2 (Homo sapiens, UniProt P29317)
# T4 construct: purchased Millipore, Inc. (KinaseProfiler service)
# Procedure: as §1
# ROCK-I = target: T5, ROCK-I (Homo sapiens, UniProt Q13464)
# T5 construct: purchased Millipore, Inc. (KinaseProfiler service)
# Procedure: as §1
# EphB4 = target: T6, EphB4 (Homo sapiens, UniProt P54760)
# T6 construct: purchased Millipore, Inc. (KinaseProfiler service)
# Procedure: as §1
# TAO1 = target: T7, TAO1 (Homo sapiens, UniProt Q7L7X3)
# T7 construct: purchased Millipore, Inc. (KinaseProfiler service)
# Procedure: as §1
# Fms = target: T8, Fms (Homo sapiens, UniProt P07333)
# T8 construct: purchased Millipore, Inc. (KinaseProfiler service)
# Procedure: as §1
# IRAK1 = target: T9, IRAK1 (Homo sapiens, UniProt P51617)
# T9 construct: purchased Millipore, Inc. (KinaseProfiler service)
# Procedure: as §1
# GRK5 = target: T10, GRK5 (Homo sapiens, UniProt P34947)
# T10 construct: purchased Millipore, Inc. (KinaseProfiler service)
# Procedure: as §1
# FGFR1 = target: T11, FGFR1 (Homo sapiens, UniProt P11362)
# T11 construct: purchased Millipore, Inc. (KinaseProfiler service)
# Procedure: as §1
# Lyn = target: T12, Lyn (Homo sapiens, UniProt P07948)
# T12 construct: purchased Millipore, Inc. (KinaseProfiler service)
# Procedure: as §1
# CDK5/p35 = target: T13, CDK5/p35 (Homo sapiens, UniProt Q00535)
# T13 construct: purchased Millipore, Inc. (KinaseProfiler service)
# Procedure: as §1
# p38delta = target: T14, p38delta (Homo sapiens, UniProt O15264)
# T14 construct: purchased Millipore, Inc. (KinaseProfiler service)
# Procedure: as §1
# MSK1 = target: T15, MSK1 (Homo sapiens, UniProt O75582)
# T15 construct: purchased Millipore, Inc. (KinaseProfiler service)
# Procedure: as §1
# MRCKbeta = target: T16, MRCKbeta (Homo sapiens, UniProt Q9Y5S2)
# T16 construct: purchased Millipore, Inc. (KinaseProfiler service)
# Procedure: as §1
# PhKgamma2 = target: T17, PhKgamma2 (Homo sapiens, UniProt P15735)
# T17 construct: purchased Millipore, Inc. (KinaseProfiler service)
# Procedure: as §1
# PRK2 = target: T18, PRK2 (Homo sapiens, UniProt Q16513)
# T18 construct: purchased Millipore, Inc. (KinaseProfiler service)
# Procedure: as §1
# MKK7beta = target: T19, MKK7beta (Homo sapiens, UniProt O14733)
# T19 construct: purchased Millipore, Inc. (KinaseProfiler service)
# Procedure: as §1
# IRAK4 = target: T20, IRAK4 (Homo sapiens, UniProt Q9NWZ3)
# T20 construct: purchased Millipore, Inc. (KinaseProfiler service)
# Procedure: as §1
# Hck = target: T21, Hck (Homo sapiens, UniProt P08631)
# T21 construct: purchased Millipore, Inc. (KinaseProfiler service)
# Procedure: as §1
# Ret = target: T22, Ret (Homo sapiens, UniProt P07949)
# T22 construct: purchased Millipore, Inc. (KinaseProfiler service)
# Procedure: as §1
# FGFR3 = target: T23, FGFR3 (Homo sapiens, UniProt P22607)
# T23 construct: purchased Millipore, Inc. (KinaseProfiler service)
# Procedure: as §1
# VRK2 = target: T24, VRK2 (Homo sapiens, UniProt Q86Y07)
# T24 construct: purchased Millipore, Inc. (KinaseProfiler service)
# Procedure: as §1
# PKCepsilon = target: T25, PKCepsilon (Homo sapiens, UniProt Q02156)
# T25 construct: purchased Millipore, Inc. (KinaseProfiler service)
# Procedure: as §1
# BrSK2 = target: T26, BrSK2 (Homo sapiens, UniProt Q8IWQ3)
# T26 construct: purchased Millipore, Inc. (KinaseProfiler service)
# Procedure: as §1
# CAMK1d = target: T27, CAMK1d (Homo sapiens, UniProt Q8IU85)
# T27 construct: purchased Millipore, Inc. (KinaseProfiler service)
# Procedure: as §1
# MARK2 = target: T28, MARK2 (Homo sapiens, UniProt Q7KZI7)
# T28 construct: purchased Millipore, Inc. (KinaseProfiler service)
# Procedure: as §1
# GSK3alpha = target: T29, GSK3alpha (Homo sapiens, UniProt P49840)
# T29 construct: purchased Millipore, Inc. (KinaseProfiler service)
# Procedure: as §1
# EphA8 = target: T30, EphA8 (Homo sapiens, UniProt P29322)
# T30 construct: purchased Millipore, Inc. (KinaseProfiler service)
# Procedure: as §1
# JAK3 = target: T31, JAK3 (Homo sapiens, UniProt P52333)
# T31 construct: purchased Millipore, Inc. (KinaseProfiler service)
# Procedure: as §1
# ERK2 = target: T32, ERK2 (Homo sapiens, UniProt P28482)
# T32 construct: purchased Millipore, Inc. (KinaseProfiler service)
# Procedure: as §1
# NLK = target: T33, NLK (Homo sapiens, UniProt Q9UBE8)
# T33 construct: purchased Millipore, Inc. (KinaseProfiler service)
# Procedure: as §1
# GSK3beta = target: T34, GSK3beta (Homo sapiens, UniProt P49841)
# T34 construct: purchased Millipore, Inc. (KinaseProfiler service)
# Procedure: as §1
# IKKalpha = target: T35, IKKalpha (Homo sapiens, UniProt O15111)
# T35 construct: purchased Millipore, Inc. (KinaseProfiler service)
# Procedure: as §1
# Rsk3 = target: T36, Rsk3 (Homo sapiens, UniProt Q15349)
# T36 construct: purchased Millipore, Inc. (KinaseProfiler service)
# Procedure: as §1
# DAPK1 = target: T37, DAPK1 (Homo sapiens, UniProt P53355)
# T37 construct: purchased Millipore, Inc. (KinaseProfiler service)
# Procedure: as §1
# RIPK2 = target: T38, RIPK2 (Homo sapiens, UniProt O43353)
# T38 construct: purchased Millipore, Inc. (KinaseProfiler service)
# Procedure: as §1
# PKD2 = target: T39, PKD2 (Homo sapiens, UniProt Q9BZL6)
# T39 construct: purchased Millipore, Inc. (KinaseProfiler service)
# Procedure: as §1
# SIK = target: T40, SIK (Homo sapiens, UniProt P57059)
# T40 construct: purchased Millipore, Inc. (KinaseProfiler service)
# Procedure: as §1
# JAK2 = target: T41, JAK2 (Homo sapiens, UniProt O60674)
# T41 construct: purchased Millipore, Inc. (KinaseProfiler service)
# Procedure: as §1
# PTK6 = target: T42, PTK6 (Homo sapiens, UniProt Q13882)
# T42 construct: purchased Millipore, Inc. (KinaseProfiler service)
# Procedure: as §1
# T7 sequence (Q7L7X3 whole entry): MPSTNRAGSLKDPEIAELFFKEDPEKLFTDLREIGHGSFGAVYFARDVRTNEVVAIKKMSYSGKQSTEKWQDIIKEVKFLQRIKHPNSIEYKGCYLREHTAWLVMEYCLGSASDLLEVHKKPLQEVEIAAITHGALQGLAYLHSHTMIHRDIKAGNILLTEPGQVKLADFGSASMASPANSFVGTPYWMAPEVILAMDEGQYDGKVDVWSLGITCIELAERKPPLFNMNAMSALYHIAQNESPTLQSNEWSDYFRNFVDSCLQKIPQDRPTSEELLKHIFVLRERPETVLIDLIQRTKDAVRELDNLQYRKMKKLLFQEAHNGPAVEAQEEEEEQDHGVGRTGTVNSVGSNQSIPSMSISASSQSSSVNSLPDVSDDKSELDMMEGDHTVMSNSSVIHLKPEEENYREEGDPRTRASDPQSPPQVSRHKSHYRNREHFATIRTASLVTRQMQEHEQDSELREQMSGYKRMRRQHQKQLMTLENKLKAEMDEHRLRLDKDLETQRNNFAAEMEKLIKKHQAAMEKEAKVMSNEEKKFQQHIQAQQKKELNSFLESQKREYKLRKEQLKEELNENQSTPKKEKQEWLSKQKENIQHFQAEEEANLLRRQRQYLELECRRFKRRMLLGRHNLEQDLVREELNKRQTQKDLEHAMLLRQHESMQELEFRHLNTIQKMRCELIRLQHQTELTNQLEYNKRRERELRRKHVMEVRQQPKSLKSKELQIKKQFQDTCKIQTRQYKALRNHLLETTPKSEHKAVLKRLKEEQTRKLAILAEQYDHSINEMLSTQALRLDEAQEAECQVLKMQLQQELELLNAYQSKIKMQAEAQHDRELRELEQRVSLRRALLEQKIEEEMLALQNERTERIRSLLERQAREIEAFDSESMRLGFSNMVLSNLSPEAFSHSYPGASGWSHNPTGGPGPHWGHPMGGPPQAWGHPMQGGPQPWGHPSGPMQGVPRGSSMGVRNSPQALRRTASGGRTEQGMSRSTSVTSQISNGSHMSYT
# T9 sequence (P51617 whole entry): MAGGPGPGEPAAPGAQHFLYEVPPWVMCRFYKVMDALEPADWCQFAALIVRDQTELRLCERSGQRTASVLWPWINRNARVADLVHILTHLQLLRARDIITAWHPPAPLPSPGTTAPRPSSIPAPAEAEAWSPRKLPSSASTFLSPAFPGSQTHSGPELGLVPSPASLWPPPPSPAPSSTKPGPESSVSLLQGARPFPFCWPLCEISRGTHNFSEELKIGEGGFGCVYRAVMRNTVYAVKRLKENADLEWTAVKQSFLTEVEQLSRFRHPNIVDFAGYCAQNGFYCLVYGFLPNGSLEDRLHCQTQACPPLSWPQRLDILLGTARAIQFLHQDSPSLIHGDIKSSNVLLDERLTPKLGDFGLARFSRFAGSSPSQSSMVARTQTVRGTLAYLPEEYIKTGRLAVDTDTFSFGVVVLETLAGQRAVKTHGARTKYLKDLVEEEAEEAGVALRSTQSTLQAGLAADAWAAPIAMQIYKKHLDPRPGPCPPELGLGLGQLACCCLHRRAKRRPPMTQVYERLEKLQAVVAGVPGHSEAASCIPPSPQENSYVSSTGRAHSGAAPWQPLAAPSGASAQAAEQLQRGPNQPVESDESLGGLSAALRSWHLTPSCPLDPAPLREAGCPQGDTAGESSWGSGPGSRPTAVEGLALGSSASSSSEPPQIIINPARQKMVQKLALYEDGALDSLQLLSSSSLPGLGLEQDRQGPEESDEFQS
# T17 sequence (P15735 whole entry): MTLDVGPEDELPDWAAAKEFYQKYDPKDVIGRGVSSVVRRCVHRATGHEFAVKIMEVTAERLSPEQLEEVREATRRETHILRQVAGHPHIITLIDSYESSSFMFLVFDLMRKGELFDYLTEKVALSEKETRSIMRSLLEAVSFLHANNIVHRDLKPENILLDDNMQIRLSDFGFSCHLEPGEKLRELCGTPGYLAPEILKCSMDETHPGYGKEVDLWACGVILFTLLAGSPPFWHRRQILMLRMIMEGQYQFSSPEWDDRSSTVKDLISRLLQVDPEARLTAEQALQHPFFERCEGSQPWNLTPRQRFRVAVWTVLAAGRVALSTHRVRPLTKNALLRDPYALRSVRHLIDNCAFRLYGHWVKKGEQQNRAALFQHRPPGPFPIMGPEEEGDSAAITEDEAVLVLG
# T35 sequence (O15111 whole entry): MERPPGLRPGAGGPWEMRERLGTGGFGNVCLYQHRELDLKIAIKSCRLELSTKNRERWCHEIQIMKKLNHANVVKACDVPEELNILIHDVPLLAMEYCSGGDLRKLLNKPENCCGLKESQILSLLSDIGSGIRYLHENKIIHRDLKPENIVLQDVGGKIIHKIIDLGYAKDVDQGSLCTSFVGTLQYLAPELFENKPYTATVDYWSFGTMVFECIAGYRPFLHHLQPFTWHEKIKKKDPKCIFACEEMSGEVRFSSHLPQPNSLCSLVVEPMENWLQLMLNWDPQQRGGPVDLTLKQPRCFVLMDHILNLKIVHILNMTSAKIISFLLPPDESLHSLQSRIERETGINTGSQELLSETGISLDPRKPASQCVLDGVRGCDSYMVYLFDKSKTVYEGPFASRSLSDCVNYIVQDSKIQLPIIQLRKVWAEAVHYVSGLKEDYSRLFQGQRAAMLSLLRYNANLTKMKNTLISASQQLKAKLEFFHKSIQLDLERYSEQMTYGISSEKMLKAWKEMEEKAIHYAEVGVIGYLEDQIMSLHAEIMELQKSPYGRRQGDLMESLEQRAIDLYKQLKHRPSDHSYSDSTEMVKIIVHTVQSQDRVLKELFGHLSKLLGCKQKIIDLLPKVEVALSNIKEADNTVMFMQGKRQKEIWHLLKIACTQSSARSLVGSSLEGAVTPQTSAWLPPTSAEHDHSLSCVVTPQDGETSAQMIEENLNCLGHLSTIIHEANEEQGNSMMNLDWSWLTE
# T28 sequence (Q7KZI7 whole entry): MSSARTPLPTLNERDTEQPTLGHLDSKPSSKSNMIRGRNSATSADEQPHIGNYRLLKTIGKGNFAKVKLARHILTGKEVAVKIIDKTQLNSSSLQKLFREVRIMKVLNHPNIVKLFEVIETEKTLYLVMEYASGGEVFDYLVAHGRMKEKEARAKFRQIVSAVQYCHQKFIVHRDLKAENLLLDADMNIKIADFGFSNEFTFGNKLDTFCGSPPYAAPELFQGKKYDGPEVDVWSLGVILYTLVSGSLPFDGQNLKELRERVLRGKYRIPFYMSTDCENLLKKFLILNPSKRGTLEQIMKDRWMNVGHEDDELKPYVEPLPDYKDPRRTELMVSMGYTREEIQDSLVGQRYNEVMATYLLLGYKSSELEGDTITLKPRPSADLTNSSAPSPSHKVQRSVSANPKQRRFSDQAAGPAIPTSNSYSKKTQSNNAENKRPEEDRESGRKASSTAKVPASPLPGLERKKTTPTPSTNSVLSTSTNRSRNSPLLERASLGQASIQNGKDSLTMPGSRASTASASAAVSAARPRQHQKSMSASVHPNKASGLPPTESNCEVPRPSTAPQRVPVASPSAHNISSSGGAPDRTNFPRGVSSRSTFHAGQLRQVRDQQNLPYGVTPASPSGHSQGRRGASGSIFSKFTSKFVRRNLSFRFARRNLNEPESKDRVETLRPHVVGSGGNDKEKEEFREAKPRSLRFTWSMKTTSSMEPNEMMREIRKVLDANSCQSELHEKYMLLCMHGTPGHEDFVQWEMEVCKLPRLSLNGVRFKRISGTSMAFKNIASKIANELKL
# T33 sequence (Q9UBE8 whole entry): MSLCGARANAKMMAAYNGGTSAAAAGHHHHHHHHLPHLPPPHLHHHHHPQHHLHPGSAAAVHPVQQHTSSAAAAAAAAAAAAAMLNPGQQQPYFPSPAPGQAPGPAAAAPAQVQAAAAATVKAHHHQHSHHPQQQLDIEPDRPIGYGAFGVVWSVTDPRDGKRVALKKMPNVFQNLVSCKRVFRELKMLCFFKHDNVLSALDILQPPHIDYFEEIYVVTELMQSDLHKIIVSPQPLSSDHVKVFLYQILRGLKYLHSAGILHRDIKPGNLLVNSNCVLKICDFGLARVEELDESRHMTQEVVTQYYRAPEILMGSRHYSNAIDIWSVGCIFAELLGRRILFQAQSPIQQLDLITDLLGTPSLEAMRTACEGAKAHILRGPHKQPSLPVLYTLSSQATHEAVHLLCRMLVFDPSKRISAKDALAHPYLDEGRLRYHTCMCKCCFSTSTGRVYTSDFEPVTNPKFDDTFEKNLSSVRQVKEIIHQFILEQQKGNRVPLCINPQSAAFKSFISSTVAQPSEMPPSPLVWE
# T12 sequence (P07948 whole entry): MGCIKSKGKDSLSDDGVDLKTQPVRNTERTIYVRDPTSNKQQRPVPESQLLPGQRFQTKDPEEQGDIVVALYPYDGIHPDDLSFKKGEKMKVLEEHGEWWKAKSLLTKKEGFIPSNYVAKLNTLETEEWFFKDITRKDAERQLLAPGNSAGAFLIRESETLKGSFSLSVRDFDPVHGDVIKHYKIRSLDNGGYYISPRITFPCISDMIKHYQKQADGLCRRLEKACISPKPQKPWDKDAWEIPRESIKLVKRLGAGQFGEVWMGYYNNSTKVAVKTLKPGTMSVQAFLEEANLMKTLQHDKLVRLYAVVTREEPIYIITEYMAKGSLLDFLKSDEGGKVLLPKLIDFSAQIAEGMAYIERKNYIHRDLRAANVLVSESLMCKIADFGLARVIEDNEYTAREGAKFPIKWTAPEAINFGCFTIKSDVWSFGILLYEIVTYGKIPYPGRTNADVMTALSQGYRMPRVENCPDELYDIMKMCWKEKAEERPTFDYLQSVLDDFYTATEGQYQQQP
# T32 sequence (P28482 whole entry): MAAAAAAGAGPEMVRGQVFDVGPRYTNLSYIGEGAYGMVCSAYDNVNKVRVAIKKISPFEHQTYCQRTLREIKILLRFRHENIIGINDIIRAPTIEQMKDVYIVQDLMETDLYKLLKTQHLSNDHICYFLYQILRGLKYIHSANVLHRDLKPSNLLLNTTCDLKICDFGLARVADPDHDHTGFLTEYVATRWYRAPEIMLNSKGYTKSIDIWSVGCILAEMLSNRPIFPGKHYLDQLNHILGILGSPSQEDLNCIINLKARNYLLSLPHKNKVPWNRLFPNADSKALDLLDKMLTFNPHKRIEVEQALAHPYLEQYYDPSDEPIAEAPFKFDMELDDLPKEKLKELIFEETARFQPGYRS
structure (smiles),measurement,setting,value
"COCc1ccc2cccc(NC(=O)Nc3c(C)c(-c4cnn(C)c4)nn3-c3ccccc3)c2c1 [Example 16, 1-(1′,4-dimethyl-1-phenyl-1H,1′H-[3,4′-bipyrazol]-5-yl)-3-(7-(methoxymethyl)naphthalen-1-yl)urea]",Avg POC,EphA4,100.5 POC
same,Avg POC,Flt3,121.5 POC
same,Avg POC,CLK3,107 POC
same,Avg POC,EphA2,123.5 POC
same,Avg POC,ROCK-I,118 POC
same,Avg POC,EphB4,145.5 POC
same,Avg POC,TAO1,104.5 POC
same,Avg POC,Fms,125.5 POC
same,Avg POC,IRAK1,125 POC
same,Avg POC,GRK5,108 POC
same,Avg POC,FGFR1,116 POC
same,Avg POC,Lyn,112 POC
same,Avg POC,CDK5/p35,123.5 POC
same,Avg POC,p38delta,121 POC
same,Avg POC,MSK1,132 POC
same,Avg POC,MRCKbeta,119 POC
same,Avg POC,PhKgamma2,118 POC
same,Avg POC,PRK2,142.5 POC
same,Avg POC,MKK7beta,115.5 POC
same,Avg POC,IRAK4,175.5 POC
same,Avg POC,Hck,135.5 POC
same,Avg POC,Ret,115 POC
same,Avg POC,FGFR3,122 POC
same,Avg POC,VRK2,110 POC
same,Avg POC,PKCepsilon,137 POC
same,Avg POC,BrSK2,143 POC
same,Avg POC,CAMK1d,134.5 POC
same,Avg POC,MARK2,114 POC
same,Avg POC,GSK3alpha,125 POC
same,Avg POC,EphA8,112.5 POC
same,Avg POC,JAK3,131.5 POC
same,Avg POC,ERK2,116.5 POC
same,Avg POC,NLK,113.5 POC
same,Avg POC,GSK3beta,212 POC
same,Avg POC,IKKalpha,138.5 POC
same,Avg POC,Rsk3,106.5 POC
same,Avg POC,DAPK1,118 POC
same,Avg POC,RIPK2,107 POC
same,Avg POC,PKD2,106 POC
same,Avg POC,SIK,121 POC
same,Avg POC,JAK2,181 POC
same,Avg POC,PTK6,114.5 POC
